Measurements reported in paper PMC3268775 (Journal of the American Chemical Society, 2012).

B1: wild type α2: β2 complex: E. coli class Ia ribonucleotide reductase (protein, UniProt P00452 1-761; P69924 2-376, looked up)
Ribonucleoside-diphosphate … 1: MNQNLLVTKRDGSTERINLDKIHRVLDWAAEGLHNVSISQVELRSHIQFYDGIKTSDIHETIIKAAADLISRDAPDYQYLAARLAIFHLRKKAYGQFEPPALYDHVVKMVEMGKYDNHLLEDYTEEEFKQMDTFIDHDRDMTFSYAAVKQLEGKYLVQNRVTGEIYESAQFLYILVAACLFSNYPRETRLQYVKRFYDAVSTFKISLPTPIMSGVRTPTRQFSSCVLIECGDSLDSINATSSAIVKYVSQRAGIGINAGRIRALGSPIRGGEAFHTGCIPFYKHFQTAVKSCSQGGVRGGAATLFYPMWHLEVESLLVLKNNRGVEGNRVRHMDYGVQINKLMYTRLLKGEDITLFSPSDVPGLYDAFFADQEEFERLYTKYEKDDSIRKQRVKAVELFSLMMQERASTGRIYIQNVDHCNTHSPFDPAIAPVRQSNLCLEIALPTKPLNDVNDENGEIALCTLSAFNLGAINNLDELEELAILAVRALDALLDYQDYPIPAAKRGAMGRRTLGIGVINFAYYLAKHGKRYSDGSANNLTHKTFEAIQYYLLKASNELAKEQGACPWFNETTYAKGILPIDTYKKDLDTIANEPLHYDWEALRESIKTHGLRNSTLSALMPSETSSQISNATNGIEPPRGYVSIKASKDGILRQVVPDYEHLHDAYELLWEMPGNDGYLQLVGIMQKFIDQSISANTNYDPSRFPSGKVPMQQLLKDLLTAYKFGVKTLYYQNTRDGAEDAQDDLVPSIQDDGCESGACKI
Ribonucleoside-diphosphate … 2: AYTTFSQTKNDQLKEPMFFGQPVNVARYDQQKYDIFEKLIEKQLSFFWRPEEVDVSRDRIDYQALPEHEKHIFISNLKYQTLLDSIQGRSPNVALLPLISIPELETWVETWAFSETIHSRSYTHIIRNIVNDPSVVFDDIVTNEQIQKRAEGISSYYDELIEMTSYWHLLGEGTHTVNGKTVTVSLRELKKKLYLCLMSVNALEAIRFYVSFACSFAFAERELMEGNAKIIRLIARDEALHLTGTQHMLNLLRSGADDPEMAEIAEECKQECYDLFVQAAQQEKDWADYLFRDGSMIGLNKDILCQYVEYITNIRMQAVGLDLPFQTRSNPIPWINTWLVSDNVQVAPQEVEVSSYLVGQIDSEVDTDDLSNFQL

Legend:
[1] = pH 8.3; cited from earlier work
pKa of [Re]–F3Y–βC19 = format: physicochemical; conditions: pH 8.3
α2: β2 complex = conditions: cited from earlier work

Row | Molecule | reduction potential of F3Y above tyrosine [1] | F3Y deprotonated (pKa of [Re]–F3Y–βC19) | baseline catalytic turnover (α2: β2 complex) [s⁻¹]
1 | N[C@@H](Cc1c(F)cc(O)c(F)c1F)C(=O)O [F3Y, 2,3,6-trifluorotyrosine] | ~ 180 mV | ~ 94% | –
2 | B1 | – | – | 2 to 10
